Source: US11091479B2, “Triazolopyridin-3-ones or their salts and pharmaceutical compositions comprising the same” (YUHAN CORPORATION, priority 2018, dated 2021)
Counter-ions that a name gives are not always drawn.

Columns and labels:
Format in all cases: biochemical
[1] = biological target: T1, recombinant human MAO-A (monoamine oxidase-A) (Homo sapiens, UniProt P21397); experiment: Activity on recombinant human MAO-A, method similar to VAP-1 assay, 0.5 mM tyramine substrate; conditions: read-out: Inhibitory Activity (IC50, nM) MAO-A
T1 construct: purchased Sigma-Aldrich
T1 sequence (P21397 1-527): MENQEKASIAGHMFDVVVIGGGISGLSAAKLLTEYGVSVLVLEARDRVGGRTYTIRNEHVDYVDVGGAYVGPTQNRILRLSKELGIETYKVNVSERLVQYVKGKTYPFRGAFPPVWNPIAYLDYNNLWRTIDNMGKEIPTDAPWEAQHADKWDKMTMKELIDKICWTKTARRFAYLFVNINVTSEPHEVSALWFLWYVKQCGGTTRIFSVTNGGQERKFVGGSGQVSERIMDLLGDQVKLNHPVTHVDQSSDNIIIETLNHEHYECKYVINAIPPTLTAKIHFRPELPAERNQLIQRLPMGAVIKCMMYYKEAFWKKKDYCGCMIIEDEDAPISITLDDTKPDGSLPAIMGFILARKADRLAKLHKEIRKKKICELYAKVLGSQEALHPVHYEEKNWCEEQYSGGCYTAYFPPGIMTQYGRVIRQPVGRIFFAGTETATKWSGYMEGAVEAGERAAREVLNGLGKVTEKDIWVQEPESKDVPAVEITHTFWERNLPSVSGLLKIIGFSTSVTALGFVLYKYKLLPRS
Summary of the method: (§1)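 Amplex Red/HRP-coupled H2O2 fluorescence assay run as for VAP-1: enzyme in 50 mM sodium phosphate pH 7.4 preincubated with compound 30 min at 37 °C, then substrate (putrescine for DAO, benzylamine for MAO-B, tyramine for MAO-A) added with 200 uM Amplex Red, 1 U/mL HRP. Signal rate over 1-2 h; IC50 from 4-parameter logistic fit.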

[2] = biological target: T2, recombinant human DAO (diamine oxidase) (Homo sapiens, UniProt P19801); experiment: Activity on recombinant human DAO, method similar to VAP-1 assay, 1 mM putrescine substrate; conditions: read-out: Inhibitory Activity (IC50, nM) DAO
T2 construct: purchased R&D systems
T2 sequence (P19801 20-751): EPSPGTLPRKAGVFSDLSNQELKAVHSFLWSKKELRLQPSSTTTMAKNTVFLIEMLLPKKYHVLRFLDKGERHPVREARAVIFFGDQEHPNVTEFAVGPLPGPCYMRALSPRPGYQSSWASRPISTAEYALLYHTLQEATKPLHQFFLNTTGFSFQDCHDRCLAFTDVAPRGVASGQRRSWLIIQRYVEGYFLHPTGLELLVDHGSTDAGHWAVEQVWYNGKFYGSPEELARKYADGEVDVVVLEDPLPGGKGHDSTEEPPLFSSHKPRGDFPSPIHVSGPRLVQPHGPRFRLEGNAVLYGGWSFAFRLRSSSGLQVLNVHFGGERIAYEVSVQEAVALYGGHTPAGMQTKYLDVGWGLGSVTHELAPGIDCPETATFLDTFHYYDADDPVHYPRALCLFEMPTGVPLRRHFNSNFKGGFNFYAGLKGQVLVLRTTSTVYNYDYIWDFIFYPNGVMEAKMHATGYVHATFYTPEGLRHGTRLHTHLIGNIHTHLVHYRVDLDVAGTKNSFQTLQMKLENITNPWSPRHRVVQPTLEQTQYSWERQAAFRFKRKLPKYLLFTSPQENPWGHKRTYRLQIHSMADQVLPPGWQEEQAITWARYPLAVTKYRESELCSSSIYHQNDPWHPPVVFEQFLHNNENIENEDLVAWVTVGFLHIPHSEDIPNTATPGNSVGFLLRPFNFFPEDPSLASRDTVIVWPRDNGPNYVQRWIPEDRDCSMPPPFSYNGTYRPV
Summary of the method: as §1

[3] = biological target: T3, recombinant human MAO-B (monoamine oxidase-B) (Homo sapiens, UniProt P27338); experiment: Activity on recombinant human MAO-B, method similar to VAP-1 assay, 1 mM benzylamine substrate; conditions: read-out: Inhibitory Activity (IC50, nM) MAO-B
T3 construct: purchased Sigma-Aldrich
T3 sequence (P27338 1-520): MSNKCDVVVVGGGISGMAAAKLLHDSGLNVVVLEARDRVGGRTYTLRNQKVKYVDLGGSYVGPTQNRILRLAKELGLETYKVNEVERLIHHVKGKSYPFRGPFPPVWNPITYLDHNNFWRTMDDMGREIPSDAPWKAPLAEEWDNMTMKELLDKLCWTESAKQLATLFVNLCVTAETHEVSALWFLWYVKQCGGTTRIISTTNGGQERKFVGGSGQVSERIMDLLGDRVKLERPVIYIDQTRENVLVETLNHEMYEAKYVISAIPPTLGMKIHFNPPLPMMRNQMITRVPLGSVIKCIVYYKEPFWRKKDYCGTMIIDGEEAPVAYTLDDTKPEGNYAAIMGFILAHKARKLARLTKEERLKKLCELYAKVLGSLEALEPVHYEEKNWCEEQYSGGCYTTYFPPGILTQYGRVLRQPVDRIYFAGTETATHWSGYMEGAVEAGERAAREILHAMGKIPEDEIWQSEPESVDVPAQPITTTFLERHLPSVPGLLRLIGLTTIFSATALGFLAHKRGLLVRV
Summary of the method: as §1

recombinant human VAP-1 = biological target: T4, recombinant human VAP-1 (Homo sapiens, UniProt Q16853); experiment: Activity on recombinant human VAP-1, HRP-coupled Amplex Red hydrogen peroxide assay, benzylamine substrate; conditions: 30 min incubation at 37° C., 1 mM benzylamine, read-out: Inhibitory Activity (IC50, nM) human VAP-1
T4 construct: purchased R&D systems
T4 sequence (Q16853 1-763): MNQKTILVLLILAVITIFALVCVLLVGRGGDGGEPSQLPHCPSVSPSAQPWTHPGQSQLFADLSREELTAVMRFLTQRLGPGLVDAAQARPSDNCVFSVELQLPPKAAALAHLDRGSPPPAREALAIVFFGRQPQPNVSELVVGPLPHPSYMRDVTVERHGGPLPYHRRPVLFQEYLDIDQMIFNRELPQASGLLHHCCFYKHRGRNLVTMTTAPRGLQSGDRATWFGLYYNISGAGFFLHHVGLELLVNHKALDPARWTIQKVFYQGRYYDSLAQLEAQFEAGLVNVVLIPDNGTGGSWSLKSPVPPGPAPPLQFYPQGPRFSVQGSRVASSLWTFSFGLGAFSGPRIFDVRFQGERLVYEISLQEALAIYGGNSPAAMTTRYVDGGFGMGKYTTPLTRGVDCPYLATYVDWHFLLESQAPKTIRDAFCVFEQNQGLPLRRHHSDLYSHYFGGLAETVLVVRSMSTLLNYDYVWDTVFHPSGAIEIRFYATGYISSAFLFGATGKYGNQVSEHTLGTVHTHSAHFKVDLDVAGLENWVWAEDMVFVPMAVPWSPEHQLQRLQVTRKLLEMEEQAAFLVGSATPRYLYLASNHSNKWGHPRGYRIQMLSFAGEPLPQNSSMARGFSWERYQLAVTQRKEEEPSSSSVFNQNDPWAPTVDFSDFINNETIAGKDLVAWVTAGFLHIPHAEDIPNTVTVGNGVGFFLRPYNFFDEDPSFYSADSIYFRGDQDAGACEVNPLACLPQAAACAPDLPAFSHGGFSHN
Summary of the method: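 Recombinant human VAP-1 in 50 mM sodium phosphate pH 7.4 preincubated with compound for 30 min at 37 °C, then 1 mM benzylamine, 200 uM Amplex Red and 1 U/mL HRP added. Resorufin fluorescence (ex 544/em 590 nm) followed over 1-2 h; % signal-rate decrease vs DMSO control, 8-point 4-parameter fit for IC50.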

| SMILES | IC50 [1] [nM] | IC50 [2] [nM] | IC50 [3] [nM] | IC50 (recombinant human VAP-1) [nM] |
| --- | --- | --- | --- | --- |
| NC/C(=C\F)Cn1nc2ccc(-c3ccc(-c4ccon4)cc3)cn2c1=O [Example 7, 2-[(2E)-2-(aminomethyl)-3-fluoroprop-2-en-1-yl]-6-[4-(1,2-oxazol-3-yl)phenyl][1,2,4]triazolo[4,3-a]pyridin-3(2H)-one hydrochloride] | > 100000 | 0.2 | 25 | 2.3 |
| NC/C(=C\F)Cn1nc2cc(-c3ccc(C(=O)N4CCOCC4)cc3)ccn2c1=O [Example 24, 2-[(2E)-2-(aminomethyl)-3-fluoroprop-2-en-1-yl]-7-[4-(morpholin-4-ylcarbonyl)phenyl][1,2,4]triazolo[4,3-a]pyridin-3(2H)-one hydrochloride] | > 100000 | 14 | > 10000 | 0.6 |
| NCC(Cn1nc2cc(C#Cc3ccc4c(c3)CCC(=O)N4)ccn2c1=O)=C(F)F [Example 62, 6-[2-[2-[2-(aminomethyl)-3,3-difluoro-allyl]-3-oxo-[1,2,4]triazolo[4,3-a]pyridin-7-yl]ethynyl]-3,4-dihydro-1H-quinolin-2-one trifluoroacetate] | > 100000 | 150 | 14000 | 0.2 |
| CC(=O)Nc1ccc(-c2ccc3nn(C/C(=C/F)CN)c(=O)n3c2)cc1 [Example 2, N-[4-[2-[(2E)-2-(aminomethyl)-3-fluoroprop-2-en-1-yl]-3-oxo-2,3-dihydro[1,2,4]triazolo[4,3-a]pyridin-6-yl]phenyl]acetamide trifluoroacetate] | 68400 | < 100 | 1780 | 6.2 |
| CS(=O)(=O)c1cccc(-c2ccn3c(=O)n(C/C(=C/F)CN)nc3c2)c1 [Example 22, 2-[(2E)-2-(aminomethyl)-3-fluoroprop-2-en-1-yl]-7-[3-(methylsulfonyl)phenyl][1,2,4]triazolo[4,3-a]pyridin-3(2H)-one hydrochloride] | > 100000 | 12 | 180 | 0.7 |
| NC/C(=C\F)Cn1nc2cc(-c3cccc(-c4noc(C5CC5)n4)c3)ccn2c1=O [Example 28, 2-[(2E)-2-(aminomethyl)-3-fluoroprop-2-en-1-yl]-7-[3-(5-cyclopropyl-1,2,4-oxadiazol-3-yl)phenyl][1,2,4]triazolo[4,3-a]pyridin-3(2H)-one hydrochloride] | > 100000 | 5 | 290 | 0.5 |
| NC/C(=C\F)Cn1nc2cc(-c3ccc(-c4ccon4)cc3)ccn2c1=O [Example 25, 2-[(2E)-2-(aminomethyl)-3-fluoroprop-2-en-1-yl]-7-[4-(1,2-oxazol-3-yl)phenyl][1,2,4]triazolo[4,3-a]pyridin-3(2H)-one hydrochloride] | 18000 | 9.1 | 220 | 0.2 |
| NC/C(=C\F)Cn1nc2cc(-c3ccc(-c4noc(C5CC5)n4)cc3)ccn2c1=O [Example 29, 2-[(2E)-2-(aminomethyl)-3-fluoroprop-2-en-1-yl]-7-[4-(5-cyclopropyl-1,2,4-oxadiazol-3-yl)phenyl][1,2,4]triazolo[4,3-a]pyridin-3(2H)-one hydrochloride] | 44000 | 4 | 380 | 0.4 |
| NC/C(=C\F)Cn1nc2ccc(-c3ccc4nonc4c3)cn2c1=O [Example 16, 2-[(2E)-2-(aminomethyl)-3-fluoroprop-2-en-1-yl]-6-(2,1,3-benzoxadiazol-5-yl)[1,2,4]triazolo[4,3-a]pyridin-3(2H)-one trifluoroacetate] | 10200 | < 100 | 52 | 4.5 |
| CC(=O)Nc1nc2cc(-c3ccc4nn(C/C(=C/F)CN)c(=O)n4c3)ccc2s1 [Example 15, N-[5-[2-[(2E)-2-(aminomethyl)-3-fluoroprop-2-en-1-yl]-3-oxo-2,3-dihydro[1,2,4]triazolo[4,3-a]pyridin-6-yl]-1,3-benzothiazol-2-yl]acetamide trifluoroacetate] | > 100000 | < 100 | 597 | 9.3 |
| CN(C)c1ccc(-c2ccn3c(=O)n(C/C(=C/F)CN)nc3c2)cn1 [Example 32, 2-[(2E)-2-(aminomethyl)-3-fluoroprop-2-en-1-yl]-7-[6-(dimethylamino)pyridin-3-yl][1,2,4]triazolo[4,3-a]pyridin-3(2H)-one hydrochloride] | > 100000 | 24 | 19 | 0.4 |
| NC/C(=C\F)Cn1nc2cc(-c3ccc4c(c3)NC(=O)OC4)ccn2c1=O [Example 41, 7-[2-[(2E)-2-(aminomethyl)-3-fluoroprop-2-en-1-yl]-3-oxo-2,3-dihydro[1,2,4]triazolo[4,3-a]pyridin-7-yl]-1,4-dihydro-2H-3,1-benzoxazin-2-one hydrochloride] | 6800 | 1.3 | 730 | 0.3 |
| NCC(Cn1nc2cc(C#Cc3ccc4c(c3)NCCO4)ccn2c1=O)=C(F)F [Example 59, 2-[2-(aminomethyl)-3,3-difluoro-allyl]-7-[2-(3,4-dihydro-2H-1,4-benzoxazin-6-yl)ethynyl]-[1,2,4]triazolo[4,3-a]pyridin-3-one ditrifluoroacetate] | > 100000 | 9000 | 2700 | 1.8 |
